The subject of this assay is Trypsin. Put plainly: anti-trypsin effect (normalised trypsin activity). It is filed as biochemical. The conditions noted are these: control (trypsin only) = 1.0.

`CC(C)(C)C(=O)C(Oc1ccc(Cl)cc1)n1ccnc1` (stereo not drawn) [Climbazole]: the Normalised activity (Climbazole 0.00391% alone) stood at 1.15; the Normalised activity (Climbazole 0.00781% alone) amounted to 1.31; the Normalised activity (Climbazole 0.01563% alone) was 1.41; the Normalised activity (Climbazole 0.03125% alone) amounted to 1.30; the Normalised activity (Climbazole 0.0625% alone) worked out at 0.908; the Normalised activity (Climbazole 0.125% alone) turned out to be 1.06.
As to Zinc gluconate, the Normalised activity is, setting by setting: (Zinc gluconate 0.00156% alone) 1.03; (Zinc gluconate 0.003125% alone) 0.957; (Zinc gluconate 0.00625% alone) 0.8404.

The values are drawn from US8759385B2, “Composition comprising azole fungicide and water soluble metal salt” (Conopco Inc., priority 2009, dated 2014).
